{
  "source": "paper PMC6311682",
  "about": "“Design, Synthesis, and Biological Evaluation of 2-Nitroimidazopyrazin-one/-es with Antitubercular and Antiparasitic Activity” (Journal of Medicinal Chemistry, 2018)",
  "key": {"[1]": {"system": "ESKAPE pathogens S. aureus (ATCC 43300), E. coli (ATCC 25922), K. pneumoniae (ATCC 700603), A. baumannii (ATCC 19606), P. aeruginosa (ATCC 27853)", "assay": "Broth microdilution MIC assay, ESKAPE pathogens", "assay_type": "cell-based"}, "[2]": {"system": "C. albicans (ATCC 90028) and C. neoformans (H99, ATCC 208821)", "assay": "Broth microdilution MIC assay, fungi", "assay_type": "cell-based"}, "in vitro [3]": {"assay": "in vitro", "details": "human"}, "[4]": {"assay": "Mammalian cytotoxicity assay (resazurin), HepG2", "details": "human, HepG2 cells"}, "[5]": {"assay": "Mammalian cytotoxicity assay (resazurin), HEK293", "details": "human, HEK293 cells"}, "M. tuberculosis (H37Rv)": {"system": "M. tuberculosis (H37Rv)", "assay": "M. tuberculosis H37Rv resazurin reduction microplate MIC assay, hypoxic conditions (0.1% oxygen)", "assay_type": "cell-based, Mycobacterium tuberculosis", "details": "H37Rv, hypoxia (0.1% oxygen)"}, "[6]": {"system": "L. donovani MHOM/IN/80/DD8 (ATCC50212)", "assay": "L. donovani DD8 intracellular (THP-1) amastigote assay", "assay_type": "cell-based", "details": "Leishmania donovani"}, "[7]": {"assay": "Broth microdilution MIC assay, ESKAPE pathogens", "assay_type": "cell-based", "details": "S. aureus, E. coli, K. pneumoniae, A. baumannii, P. aeruginosa; read-out: antibacterial MIC ESKAPE"}, "[8]": {"assay": "Plasma protein binding, ultrafiltration method", "assay_type": "in vitro ADME", "details": "human plasma, % bound, read-out: PPB (%) (converted)"}, "[9]": {"assay": "Kinetic solubility determination by LC-UV", "details": "room temperature, 1% DMSO"}, "[10]": {"assay": "Caco-2 monolayer bidirectional permeability assay", "details": "human, Caco-2, pH 7.4"}, "in vitro [11]": {"assay": "in vitro", "details": "human", "remark": "listed apart in the source"}, "[12]": {"assay": "Mammalian cytotoxicity, liver HepG2 and kidney HEK293 cell lines stated together", "details": "human"}, "[13]": {"system": "E. histolytica (HM1:IMSS)", "assay": "ATP-bioluminescence cell growth and survival assay, E. histolytica trophozoites", "assay_type": "cell-based", "details": "Entamoeba histolytica"}, "[14]": {"system": "C. difficile (630, ATCC BAA-1382)", "assay": "Broth microdilution MIC assay, C. difficile", "assay_type": "cell-based, Clostridium difficile", "details": "630 ATCC BAA-1382, median MIC; for MIC: Clostridioides difficile, ATCCBAA1382, read-out: antibacterial MIC C. difficile"}, "M. tuberculosis": {"system": "M. tuberculosis", "details": "cited from earlier work"}, "in vitro [15]": {"assay": "in vitro", "details": "human", "remark": "listed apart in the source"}, "[16]": {"details": "read-out: antiparasitic IC50 L. donovani"}, "[17]": {"details": "read-out: antiparasitic pIC50 ± SE L. donovani (converted)"}, "[18]": {"details": "PBS, pH 7.4, Solubility µM (PBS), PBS pH 7.4, 24 h"}, "[19]": {"details": "water, Solubility µM (H2O), 24 h"}},
  "note": "Read-outs that look alike come from different tables or passages of the source.",
  "data": [
    {"compound": "O=[N+]([O-])c1cn2c(n1)OC[C@@H](OCc1ccc(OC(F)(F)F)cc1)C2", "note": "[pretomanid 6, pretomanid, reference compound]", "values": [
      {"measurement": "antibacterial MIC ESKAPE", "setting": "[1]", "result": "> 32", "unit": "µg/mL"},
      {"measurement": "antifungal MIC", "setting": "[2]", "result": "> 32", "unit": "µg/mL"},
      {"measurement": "Papp A→B at 2 h, 2 µM", "setting": "in vitro [3]; Caco-2, pH 7.4", "result": 29, "unit": "×10⁻⁶ cm/s"},
      {"measurement": "Papp B→A at 2 h, 2 µM", "setting": "in vitro [3]; Caco-2, pH 7.4", "result": 22, "unit": "×10⁻⁶ cm/s"},
      {"measurement": "solubility", "setting": "physchem", "result": "11.3 ± 3.07", "unit": "µM"},
      {"measurement": "solubility", "setting": "physchem; pH 7.4", "result": "10.6 ± 1.76", "unit": "µM"},
      {"measurement": "CC50 at 24 h", "setting": "[4]", "result": "> 100", "unit": "µM"},
      {"measurement": "CC50 at 24 h", "setting": "[5]", "result": "> 100", "unit": "µM"}
    ]},
    {"compound": "O=c1c2nc([N+](=O)[O-])cn2ccn1Cc1ccc(OC(F)(F)F)cc1", "note": "[17c, 2-Nitro-7-(4-(trifluoromethoxy)benzyl)imidazo[1,2-a]pyrazin-8(7H)-one]", "values": [
      {"measurement": "antibacterial MIC M. tuberculosis hypoxia", "setting": "M. tuberculosis (H37Rv)", "result": "1.0 to 4.0", "unit": "µg/mL"},
      {"measurement": "IC50", "setting": "[6]; [16]", "result": "> 80", "unit": "µM"},
      {"measurement": "IC50", "setting": "[6]; [17]", "result": "> 79.4", "unit": "µM"},
      {"measurement": "MIC", "setting": "[7]", "result": "> 32", "unit": "µg/mL"},
      {"measurement": "antibacterial MIC ESKAPE", "setting": "[1]", "result": "> 32", "unit": "µg/mL"},
      {"measurement": "fraction unbound at 0.5 h, 5 µM", "setting": "[8]", "result": 0.02},
      {"measurement": "solubility at 24 h", "setting": "[9]; [18]", "result": "< 5", "unit": "µM"},
      {"measurement": "solubility at 24 h", "setting": "[9]; [19]", "result": "< 5", "unit": "µM"},
      {"measurement": "Papp A→B at 2 h, 2 µM", "setting": "[10]", "result": 25, "unit": "×10⁻⁶ cm/s"},
      {"measurement": "Papp A→B at 2 h, 2 μM", "setting": "[10]", "result": "> 20", "unit": "×10⁻⁶ cm/s"},
      {"measurement": "Papp B→A at 2 h, 2 µM", "setting": "[10]", "result": 22, "unit": "×10⁻⁶ cm/s"}
    ]},
    {"compound": "CC(Cc1ccc(O)cc1)NCC(O)c1cc(O)cc(O)c1", "note": "(centres unmarked) [fenoterol]", "values": [
      {"measurement": "Papp A→B at 2 h, 2 µM", "setting": "in vitro [3]; Caco-2, pH 7.4", "result": 0.27, "unit": "×10⁻⁶ cm/s"},
      {"measurement": "recovery at 2 h, 2 µM", "setting": "in vitro [3]; Caco-2, pH 7.4, mean recovery (%) A to B", "result": 92, "unit": "%"}
    ]},
    {"compound": "O=c1c2nc([N+](=O)[O-])cn2ccn1Cc1ccccc1", "note": "[17b, 7-Benzyl-2-nitroimidazo[1,2-a]pyrazin-8(7H)-one]", "values": [
      {"measurement": "antibacterial MIC M. tuberculosis hypoxia", "setting": "M. tuberculosis (H37Rv)", "result": "4.0 to 8.0", "unit": "µg/mL"},
      {"measurement": "IC50", "setting": "[6]; [16]", "result": "> 80", "unit": "µM"},
      {"measurement": "IC50", "setting": "[6]; [17]", "result": "> 79.4", "unit": "µM"},
      {"measurement": "MIC", "setting": "[7]", "result": "> 32", "unit": "µg/mL"},
      {"measurement": "antibacterial MIC ESKAPE", "setting": "[1]", "result": "> 32", "unit": "µg/mL"},
      {"measurement": "CC50 at 24 h", "setting": "in vitro [11]", "result": 105, "unit": "µM"},
      {"measurement": "solubility at 24 h", "setting": "[9]; [18]", "result": "< 5", "unit": "µM"},
      {"measurement": "solubility at 24 h", "setting": "[9]; [19]", "result": "< 5", "unit": "µM"},
      {"measurement": "CC50 at 24 h", "setting": "[12]", "result": "98 to 123", "unit": "µM"}
    ]},
    {"compound": "O=c1c2nc([N+](=O)[O-])cn2ccn1C1CCCCC1", "note": "[17t, 7-Cyclohexyl-2-nitroimidazo[1,2-a]pyrazin-8(7H)-one]", "values": [
      {"measurement": "IC50", "setting": "[13]; read-out: antiparasitic IC50 E. histolytica", "result": "> 50", "unit": "µM"},
      {"measurement": "IC50", "setting": "[13]; read-out: antiparasitic pIC50 ± SE E. histolytica (converted)", "result": "> 50.1", "unit": "µM"},
      {"measurement": "IC50", "setting": "[6]; [16]", "result": "> 80", "unit": "µM"},
      {"measurement": "IC50", "setting": "[6]; [17]", "result": "> 79.4", "unit": "µM"},
      {"measurement": "antibacterial MIC C. difficile", "setting": "[14]", "result": ">64", "unit": "µg/mL"},
      {"measurement": "MIC", "setting": "[14]", "result": "> 64", "unit": "µg/mL"},
      {"measurement": "MIC", "setting": "[7]", "result": "> 32", "unit": "µg/mL"},
      {"measurement": "antibacterial MIC ESKAPE", "setting": "[1]", "result": ">32", "unit": "µg/mL"},
      {"measurement": "solubility at 24 h", "setting": "[9]; [18]", "result": "< 10", "unit": "µM"},
      {"measurement": "solubility at 24 h", "setting": "[9]; [19]", "result": "< 10", "unit": "µM"},
      {"measurement": "CC50 at 24 h", "setting": "[4]", "result": 123, "unit": "µM"},
      {"measurement": "CC50 at 24 h", "setting": "[5]", "result": 112, "unit": "µM"},
      {"measurement": "CC50 at 24 h", "setting": "[12]; HepG2 and HEK293 cells", "result": "98 to 123", "unit": "µM"}
    ]},
    {"compound": "FC(F)(F)Oc1ccc(CO[C@@H]2COc3nccn3C2)cc1", "note": "[compound 9, S-des-nitro-PA-824]", "values": [
      {"measurement": "MIC M. tuberculosis aerobic growth", "setting": "M. tuberculosis; aerobic growth", "result": "> 160", "unit": "µM"},
      {"measurement": "MIC M. tuberculosis anaerobic growth", "setting": "M. tuberculosis; anaerobic growth", "result": "> 500", "unit": "µM"}
    ]},
    {"compound": "O=c1[nH]c(-c2ccccc2)cn2cc([N+](=O)[O-])nc12", "note": "[24a, 2-Nitro-6-phenylimidazo[1,2-a]pyrazin-8(7H)-one]", "values": [
      {"measurement": "IC50", "setting": "[6]; [16]", "result": "> 80", "unit": "µM"},
      {"measurement": "IC50", "setting": "[6]; [17]", "result": "> 79.4", "unit": "µM"},
      {"measurement": "antibacterial MIC C. difficile", "setting": "[14]", "result": ">64", "unit": "µg/mL"},
      {"measurement": "MIC", "setting": "[14]", "result": "> 64", "unit": "µg/mL"},
      {"measurement": "MIC", "setting": "[7]", "result": "> 32", "unit": "µg/mL"},
      {"measurement": "antibacterial MIC ESKAPE", "setting": "[1]", "result": ">32", "unit": "µg/mL"},
      {"measurement": "antifungal MIC", "setting": "[2]", "result": ">32", "unit": "µg/mL"},
      {"measurement": "MIC", "setting": "[2]; Candida albicans, read-out: antifungal MIC", "result": "> 32", "unit": "µg/mL"},
      {"measurement": "CC50", "setting": "in vitro [15]", "result": "> 100", "unit": "µM"},
      {"measurement": "CC50", "setting": "in vitro [11]", "result": "> 100", "unit": "µM"}
    ]},
    {"compound": "O=[N+]([O-])c1cn2c(n1)OC[C@H](OCc1ccc(OC(F)(F)F)cc1)C2", "note": "[(R)-PA-824 (8), (R)-PA-824]", "values": [
      {"measurement": "activity against M. tuberculosis", "setting": "M. tuberculosis", "result": "inactive"}
    ]}
  ]
}
